This note sets out measurements from ChEMBL document CHEMBL1201862, “PubChem BioAssay data set” (2004).

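Cultured in 96-well plates, cells were exposed to test compound for 48 hours across five concentrations. The concentration for 50% growth inhibition is given as GI50.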 Activity calls are given as the source filed them. Rule as the data show it: active = GI50 up to about 1.1 µM and inactive = higher. Bounds are passed on as bounds.

Experiment in all cases: NCI tumour cell line growth inhibition, 48 h
Assay [1] concerns UO-31.
Assay [2] deals with Malme-3M.
Assay [3] has as its system T47D.
Assay [4] deals with CAKI-1.
For assay [5], the system named is HL-60.
The test system of assay [6] is SN12C.
Assay [7] concerns RXF 393.
For assay [8], the system named is IGROV-1.
For assay [9], the system named is SK-OV-3.
Assay [10] has as its system SF-268.
Assay [11] deals with LOX IMVI.
Assay [12] deals with OVCAR-3.
For assay [13], the system named is HCC 2998.
For assay [14], the system named is EKVX.
The test system of assay [15] is BT-549.
The test system of assay [16] is ACHN.
Assay [17] relates to HCT-116.
In assay [18] the test system is RPMI-8226.
Assay [19] has as its system OVCAR-4.
The subject of assay [20] is NCI-H226.

For the compound `Cc1ccccc1OC(C)C(=O)NN1C(=O)CSC1c1ccc(Cl)cc1` (stereo not given), the GI50 in assay [1] was > 100 µM (inactive); in assay [2], 25.7 µM (inactive); in assay [3] it was 51.1 µM (inactive); in assay [4], 56.6 µM (inactive); in assay [5], 21.1 µM (inactive); in assay [6] it was 17.5 µM (inactive). Also, the GI50 in assay [7] was 38.5 µM (inactive); in assay [8], 38.5 µM (inactive); in assay [9] it was 47.1 µM (inactive); in assay [10], 25.4 µM (inactive); in assay [11], 24.4 µM (inactive); in assay [12], 31 µM (inactive). For the same compound, the GI50 is 34.9 µM (inactive) in assay [13]; 37.9 µM (inactive) in [14]; 44.8 µM (inactive) in assay [15]; 33 µM (inactive) in assay [16]; 31.4 µM (inactive) in assay [17]; 26.5 µM (inactive) in assay [18]. Further, the values for the GI50 in assay [19] and in [20] were 36.4 µM (inactive) and > 49.1 µM (inactive), respectively.
`Cc1ccc(NC(=O)CCc2nnc3s/c(=C\C=C\c4ccccc4)c(=O)n23)cc1`: the GI50 in assay [1] was > 100 µM (inactive); in assay [2], > 100 µM (inactive); in assay [3], > 31.6 µM (inactive); in [4], > 100 µM (inactive); in [5], 56 µM (inactive); in [6] it was > 100 µM (inactive). Further, the GI50 in assay [7] was > 81.8 µM (inactive); in assay [8] it was > 100 µM (inactive); in [9], > 100 µM (inactive); in [10], 59.3 µM (inactive); in [11], 27 µM (inactive); in [12], 44.9 µM (inactive). Further, the GI50 in assay [13] was > 100 µM (inactive); in assay [14], > 100 µM (inactive); in [15], > 63.8 µM (inactive); in assay [16], > 100 µM (inactive); in assay [17], > 100 µM (inactive); in assay [18], 46.9 µM (inactive). In addition, the GI50 in assay [19] is > 56.2 µM (inactive); in assay [20], > 100 µM (inactive).
In the case of `COC(=O)/C=C\C(C#N)(C#N)/N=C/c1ccc(Br)s1`, the GI50 in assay [1] is 2.39 µM (inactive); in assay [2], 1.77 µM (inactive); in assay [3] it was 3.52 µM (inactive); in assay [4], 2.45 µM (inactive); in [5] it was 1.85 µM (inactive); in assay [6] it was 15.2 µM (inactive). Further, the GI50 in assay [7] was 2.03 µM (inactive); in assay [8], 14.9 µM (inactive); in assay [9] it was 19.2 µM (inactive); in [10] it was 18.5 µM (inactive); in [11], 2.16 µM (inactive); in assay [12] it was 11 µM (inactive). Moreover, the GI50 is 19.1 µM (inactive) in assay [13]; 12.2 µM (inactive) in assay [14]; 4.79 µM (inactive) in [15]; 2.29 µM (inactive) in [16]; 4.89 µM (inactive) in assay [17]; 2.32 µM (inactive) in assay [18]. For the same compound, the GI50 in assay [19] was 6.61 µM (inactive); in [20], 3.18 µM (inactive).
With `N=c1nc2n(cc1F)[C@@H]1O[C@H](CO)[C@@H](O)[C@@H]1O2`, the GI50 is 24.6 µM (inactive) in [1]; 9.42 µM (inactive) in assay [2]; 18.4 µM (inactive) in [3]; 3.45 µM (inactive) in [4]; 0.317 µM (active) in [5]; 14.4 µM (inactive) in [6]. For the same compound, the GI50 is > 40.7 µM (inactive) in [7]; 47.4 µM (inactive) in assay [8]; 8.55 µM (inactive) in assay [9]; 4.22 µM (inactive) in assay [10]; 1.06 µM (active) in [11]; 9.1 µM (inactive) in assay [12]. The GI50 is > 56 µM (inactive) in [13]; > 100 µM (inactive) in assay [14]; > 100 µM (inactive) in assay [15]; 2.12 µM (inactive) in assay [16]; 1.31 µM (inactive) in assay [17]; 56.9 µM (inactive) in assay [18]. Besides, the GI50 in assay [19] is > 100 µM (inactive); in assay [20], 17.3 µM (inactive).
